How the values were obtained:
Experiment in all cases: relative viability (nuclei count vs DMSO), 5 days (fraction); higher = more cells survive
BI-D1870 + OSI-027 = compound: CC(C)CCN1c2nc(Nc3cc(F)c(O)c(F)c3)ncc2N(C)C(=O)C1C [BI-D1870] + COc1cccc2cc(-c3nc([C@H]4CC[C@H](C(=O)O)CC4)n4ncnc(N)c34)[nH]c12 [OSI-027] (partner 0.5 µM)
Summary of the method: (§1)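 Relative viability divides the nuclei count in treated wells by that in vehicle wells. Lung cancer cell lines were seeded in 1536-well plates, dosed by pin tool the next day, and fixed and stained after 5 days in one step with final 0.05% Triton X-100, 1% formaldehyde and 1 ug/ml Hoechst. Dosing was a single drug or a fixed anchor-drug dose plus five library-drug doses (not always all listed) in √10 steps, and values are medians of duplicate plates imaged at 4×.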

BI-D1870 + Tozasertib = compound: CC(C)CCN1c2nc(Nc3cc(F)c(O)c(F)c3)ncc2N(C)C(=O)C1C [BI-D1870] + Cc1cc(Nc2cc(N3CCN(C)CC3)nc(Sc3ccc(NC(=O)C4CC4)cc3)n2)n[nH]1 [Tozasertib] (partner 0.1 µM)
Summary of the method: as §1

BI-D1870 + Dasatinib = compound: CC(C)CCN1c2nc(Nc3cc(F)c(O)c(F)c3)ncc2N(C)C(=O)C1C [BI-D1870] + Cc1nc(Nc2ncc(C(=O)Nc3c(C)cccc3Cl)s2)cc(N2CCN(CCO)CC2)n1 [Dasatinib] (partner 0.075 µM)
Summary of the method: as §1

Zebularine + Phenformin = compound: O=c1ncccn1[C@@H]1O[C@H](CO)[C@@H](O)[C@H]1O [Zebularine] + N=C(N)NC(=N)NCCc1ccccc1 [Phenformin] (partner 250 µM)
Summary of the method: as §1

For UMC-11, the relative viability (BI-D1870 + OSI-027; first compound 0.04 µM) was 0.519, the relative viability (BI-D1870 + OSI-027; first compound 0.1265 µM) was 0.48 and the relative viability (BI-D1870 + OSI-027; first compound 0.4 µM) was 0.479. The relative viability (BI-D1870 + OSI-027; first compound 1.265 µM) was 0.406, the relative viability (BI-D1870 + OSI-027; first compound 4 µM) was 0.16 and the relative viability (BI-D1870 + Tozasertib; first compound 0.04 µM) was 0.197. For the same cell line, the relative viability (BI-D1870 + Tozasertib; first compound 0.1265 µM) was 0.205, the relative viability (BI-D1870 + Tozasertib; first compound 0.4 µM) was 0.195 and the relative viability (BI-D1870 + Tozasertib; first compound 1.265 µM) was 0.191. It also gave a relative viability (BI-D1870 + Tozasertib; first compound 4 µM) of 0.188, a relative viability (BI-D1870 + Dasatinib; first compound 0.04 µM) of 0.579 and a relative viability (BI-D1870 + Dasatinib; first compound 0.1265 µM) of 0.454. It also gave a relative viability (BI-D1870 + Dasatinib; first compound 0.4 µM) of 0.481, a relative viability (BI-D1870 + Dasatinib; first compound 1.265 µM) of 0.393 and a relative viability (BI-D1870 + Dasatinib; first compound 4 µM) of 0.142. For the same cell line, the relative viability (Zebularine + Phenformin; first compound 1 µM) was 0.282, the relative viability (Zebularine + Phenformin; first compound 3.162 µM) was 0.344 and the relative viability (Zebularine + Phenformin; first compound 10 µM) was 0.258. It also gave a relative viability (Zebularine + Phenformin; first compound 31.62 µM) of 0.327 and a relative viability (Zebularine + Phenformin; first compound 100 µM) of 0.292.

Source: the supplement of paper PMC10307832
